Earlier results on two molecules are cited in patent US5221745A, “Psychotropic piperidinylmethyl benzodioxans” (American Home Products Corp., priority 1992, dated 1993).

One data set deals with 5-HT1A receptor. To be noted: Fozard et al. 1987.
The target of data set [1] is T1, serotonin 5-HT1A receptor (Rattus norvegicus, UniProt P19327).
T1 construct: following the procedure of Hall et al., J. Neurochem; 44, 1685 (1985); from tissue
T1 sequence (P19327 1-422): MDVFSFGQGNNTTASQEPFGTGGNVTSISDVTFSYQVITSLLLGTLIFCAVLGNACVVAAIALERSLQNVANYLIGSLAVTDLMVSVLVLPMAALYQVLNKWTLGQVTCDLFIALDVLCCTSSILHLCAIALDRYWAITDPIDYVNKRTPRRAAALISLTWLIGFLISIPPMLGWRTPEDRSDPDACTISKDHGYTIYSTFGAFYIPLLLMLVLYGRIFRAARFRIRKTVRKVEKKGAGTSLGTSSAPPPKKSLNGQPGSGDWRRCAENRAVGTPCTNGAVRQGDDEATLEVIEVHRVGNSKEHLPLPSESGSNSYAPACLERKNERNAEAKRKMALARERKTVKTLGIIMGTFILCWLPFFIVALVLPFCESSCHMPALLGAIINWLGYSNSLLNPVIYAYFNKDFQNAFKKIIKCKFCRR
The note with it: standard for anxiolytic activity.

Structures are written as SMILES.

Take `O=C1CC2(CCCC2)CC(=O)N1CCCCNCC1COc2ccccc2O1` (centres unmarked) [MDL 72832, 8-[4-(1,4-benzodioxan-2-ylmethylamino)butyl]-8-azaspiro[4.5]decane-7,9-dione]: the “ligand character for 5-HT1A receptors (in words)” value with 5-HT1A receptor was “selective and stereospecific”.

Take `O=C1CC2(CCCC2)CC(=O)N1CCCCN1CCN(c2ncccn2)CC1` [buspirone]: the “affinity for the 5-HT1A serotonin receptor subtype (in words)” value in data set [1] is given as “potent affinity”.
